Where a name gives a salt, the structure may show the parent alone. Read-outs that look alike come from different tables or passages of the source.

Our source for the IC50 values is patent US11427553B2, “Dihydrooxadiazinones” (Bayer Aktiengesellschaft, priority 2017, dated 2022).

One test concerns HeLa cells. The test can be described thus: Assay 1 cell proliferation measurement (CTG, 72 h), HeLa. Format: cell-based, human. As to conditions: Assay 1, 72 h, Cell Titer Glo, read-out: HeLa IC50 [nM] (Cervical cancer). In short, it runs like this: (§1)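 CellTiter-Glo luminescence was read at treatment start (0 h plate) and after 72 h compound exposure at 37 °C. Doses were 2.5-fold steps, ten concentrations, top 100 nM final, 0.3% DMSO. Growth inhibition was scaled between 0 h and vehicle values, and IC50 was obtained by 4-parameter fitting.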
For orientation: In ATP-based viability assays light output follows the ATP content of the culture.

A further test addresses human full length PDE3B (Homo sapiens (Human), UniProt Q13370). Briefly: Assay 5 PDE3B enzyme inhibition (3H-cAMP SPA). As to conditions: Sf9 cell extract. The test is classed as biochemical. A digest of the protocol:
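Hydrolysis of tritiated cAMP by Sf9-expressed full-length human PDE3B proceeded 60 min at room temperature in Tris buffer pH 7.5 containing Mg2+, EDTA and BSA, with enzyme dilution keeping substrate consumption below 70%. IC50 derived from percent activity versus log compound concentration.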

The next test concerns SK-MEL-3 cells. Briefly: Assay 1 cell proliferation measurement (CTG, 72 h), SK-MEL-3. As to conditions: Assay 1, 72 h, Cell Titer Glo, read-out: SK-MEL-3 IC50 [nM] (melanoma). The test is classed as cell-based, human. In short, it runs like this:
as §1

The target in a further test is human full length PDE3A (Homo sapiens (Human), UniProt Q14432). The test can be described thus: Assay 4 PDE3A enzyme inhibition (3H-cAMP SPA). As to conditions: Sf9 cell extract. Format: biochemical. In short, it runs like this:
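Enzyme: Sf9 extract with overexpressed full-length PDE3A; substrate [8-3H]cAMP, 0.025 μCi/well; 60 min, room temperature, Tris/HCl pH 7.5 buffer with MgCl2, EDTA, BSA.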

Chain of human full length PDE3B (Q13370 whole entry): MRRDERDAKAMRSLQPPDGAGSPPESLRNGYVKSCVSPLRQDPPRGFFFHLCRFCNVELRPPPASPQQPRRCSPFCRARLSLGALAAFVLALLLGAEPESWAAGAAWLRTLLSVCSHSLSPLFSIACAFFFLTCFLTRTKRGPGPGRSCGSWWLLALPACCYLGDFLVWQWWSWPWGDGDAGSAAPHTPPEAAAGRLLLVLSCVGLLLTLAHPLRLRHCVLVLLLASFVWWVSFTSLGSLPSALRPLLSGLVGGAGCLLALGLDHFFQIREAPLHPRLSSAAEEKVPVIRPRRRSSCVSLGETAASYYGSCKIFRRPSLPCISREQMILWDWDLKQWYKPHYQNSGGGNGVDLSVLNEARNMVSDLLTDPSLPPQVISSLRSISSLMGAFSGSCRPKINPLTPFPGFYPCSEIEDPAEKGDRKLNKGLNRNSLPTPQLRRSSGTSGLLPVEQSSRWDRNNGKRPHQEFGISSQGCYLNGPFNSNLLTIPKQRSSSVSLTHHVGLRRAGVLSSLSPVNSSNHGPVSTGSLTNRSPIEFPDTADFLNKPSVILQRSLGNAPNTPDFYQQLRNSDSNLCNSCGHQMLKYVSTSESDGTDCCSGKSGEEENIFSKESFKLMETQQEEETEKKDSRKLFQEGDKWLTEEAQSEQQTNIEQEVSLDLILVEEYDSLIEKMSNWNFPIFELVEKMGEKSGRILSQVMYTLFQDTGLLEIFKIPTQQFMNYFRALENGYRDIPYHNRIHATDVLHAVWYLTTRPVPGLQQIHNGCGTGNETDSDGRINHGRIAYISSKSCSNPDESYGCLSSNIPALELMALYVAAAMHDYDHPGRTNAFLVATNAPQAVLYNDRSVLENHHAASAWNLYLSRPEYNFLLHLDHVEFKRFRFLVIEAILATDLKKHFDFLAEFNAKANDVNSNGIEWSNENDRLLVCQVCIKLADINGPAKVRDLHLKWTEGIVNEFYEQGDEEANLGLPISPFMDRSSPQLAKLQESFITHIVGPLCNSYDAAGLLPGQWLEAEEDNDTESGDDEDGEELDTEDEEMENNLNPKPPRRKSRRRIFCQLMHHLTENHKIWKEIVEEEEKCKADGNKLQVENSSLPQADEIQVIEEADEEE
Chain of human full length PDE3A (Q14432 whole entry): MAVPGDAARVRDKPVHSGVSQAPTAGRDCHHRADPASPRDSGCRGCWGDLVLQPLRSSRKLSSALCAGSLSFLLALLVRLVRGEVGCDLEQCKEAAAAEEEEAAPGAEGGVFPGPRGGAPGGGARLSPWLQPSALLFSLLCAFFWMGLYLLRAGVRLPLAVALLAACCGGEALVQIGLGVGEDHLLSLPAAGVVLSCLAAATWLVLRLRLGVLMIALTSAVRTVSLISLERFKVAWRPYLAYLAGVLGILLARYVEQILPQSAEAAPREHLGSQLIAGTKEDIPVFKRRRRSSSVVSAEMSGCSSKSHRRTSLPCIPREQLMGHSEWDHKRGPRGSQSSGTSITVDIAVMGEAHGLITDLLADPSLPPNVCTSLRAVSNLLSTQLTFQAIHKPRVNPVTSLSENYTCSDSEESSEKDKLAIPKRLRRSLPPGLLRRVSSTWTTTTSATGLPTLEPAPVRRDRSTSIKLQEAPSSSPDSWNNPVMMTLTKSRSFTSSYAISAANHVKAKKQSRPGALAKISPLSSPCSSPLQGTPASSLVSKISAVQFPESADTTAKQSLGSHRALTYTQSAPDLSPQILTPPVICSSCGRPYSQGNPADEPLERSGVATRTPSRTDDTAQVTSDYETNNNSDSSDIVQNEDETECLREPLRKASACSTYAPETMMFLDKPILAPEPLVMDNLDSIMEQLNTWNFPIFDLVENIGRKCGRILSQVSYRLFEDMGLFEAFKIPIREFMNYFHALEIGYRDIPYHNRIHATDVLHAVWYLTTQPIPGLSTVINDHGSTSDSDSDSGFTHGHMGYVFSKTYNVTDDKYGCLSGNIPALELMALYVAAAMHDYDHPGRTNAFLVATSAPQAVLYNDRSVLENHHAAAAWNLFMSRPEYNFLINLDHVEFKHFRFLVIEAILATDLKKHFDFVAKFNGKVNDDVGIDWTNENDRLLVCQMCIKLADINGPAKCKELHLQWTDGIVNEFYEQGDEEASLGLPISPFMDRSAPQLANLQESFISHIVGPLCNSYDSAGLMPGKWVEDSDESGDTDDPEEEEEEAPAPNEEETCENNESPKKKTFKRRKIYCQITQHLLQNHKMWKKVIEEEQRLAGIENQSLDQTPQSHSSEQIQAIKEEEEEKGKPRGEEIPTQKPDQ

Take `CC(C)n1cc(-c2ccc(C3=NNC(=O)OC3)cc2C(F)(F)F)cn1` [Example 153, 5-{4-[1-(Propan-2-yl)-1H-pyrazol-4-yl]-3-(trifluoromethyl)phenyl}-3,6-dihydro-2H-1,3,4-oxadiazin-2-one]: the IC50 (in general, the concentration that inhibits the measured activity by half) in the test with HeLa cells (Homo sapiens, HeLa) was 4 nM; at human full length PDE3B, 26 nM; with SK-MEL-3 cells (Homo sapiens, SK-MEL3) it was 7 nM; against human full length PDE3A it was 15 nM.
For `COc1ccc(-c2ccc(C3=NNC(=O)OC3)cc2F)cn1` [Example 85, 5-[3-Fluoro-4-(6-methoxypyridin-3-yl)phenyl]-3,6-dihydro-2H-1,3,4-oxadiazin-2-one] the same measures were 7 nM, 78 nM, 13 nM and 33 nM.
As for `COc1ccc(-c2ccc(C3=NNC(=O)O[C@H]3C)cc2C(F)(F)F)cn1` [Example 187, (6S)-5-[4-(6-Methoxypyridin-3-yl)-3-(trifluoromethyl)phenyl]-6-methyl-3,6-dihydro-2H-1,3,4-oxadiazin-2-one], the IC50 with HeLa cells (Homo sapiens, HeLa) was 23 nM; at human full length PDE3B, 100 nM; in the test with SK-MEL-3 cells (Homo sapiens, SK-MEL3) it was 40 nM; on human full length PDE3A, 81 nM.
Regarding `O=C1NN=C(c2ccc(-c3cccc(F)c3F)c(F)c2)CO1` [Example 109, 5-(2,2′,3′-Trifluoro[1,1′-biphenyl]-4-yl)-3,6-dihydro-2H-1,3,4-oxadiazin-2-one], the concentration for half-maximal inhibition (IC50) is 4 nM with HeLa cells (Homo sapiens, HeLa); 32 nM against human full length PDE3B; 9 nM with SK-MEL-3 cells (Homo sapiens, SK-MEL3); 46 nM against human full length PDE3A.
For `CCn1cc(-c2ccc(C3=NNC(=O)OC3)cc2C(F)(F)F)cn1` [Example 131, 5-[4-(1-Ethyl-1H-pyrazol-4-yl)-3-(trifluoromethyl)phenyl]-3,6-dihydro-2H-1,3,4-oxadiazin-2-one] the same measures were 2 nM, 42 nM, 6 nM and 32 nM.
For `NC12CC1CN(c1ccc(C3=NNC(=O)OC3)cc1C(F)(F)F)C2` (racemic) [Example 275, (rac)-5-{4-[1-amino-3-azabicyclo[3.1.0]hexan-3-yl]-3-(trifluoromethyl)phenyl}-3,6-dihydro-2H-1,3,4-oxadiazin-2-one-salt with hydrochloric acid], in that order: 5 nM, 64 nM, 7 nM and 29 nM.
In the case of `C[C@H]1C[C@H](C)N1c1ccc(C2=NNC(=O)OC2)cc1C(F)(F)F` (relative stereo) [Example 208, (cis or trans)-5-{4-[2,4-Dimethylazetidin-1-yl]-3-(trifluoromethyl)phenyl}-3,6-dihydro-2H-1,3,4-oxadiazin-2-one], the IC50 with HeLa cells is 5 nM; against human full length PDE3B, 140 nM; with SK-MEL-3 cells it was 7 nM; against human full length PDE3A, 110 nM.
On to `O=C1NN=C(c2ccc(-c3ccc(F)cn3)c(C(F)(F)F)c2)CO1` [Example 158, 5-[4-(5-Fluoropyridin-2-yl)-3-(trifluoromethyl)phenyl]-3,6-dihydro-2H-1,3,4-oxadiazin-2-one], for which the IC50 with HeLa cells (Homo sapiens, HeLa) turned out to be 22 nM; at human full length PDE3B it was 720 nM; with SK-MEL-3 cells (Homo sapiens, SK-MEL3) it was 40 nM; at human full length PDE3A, 500 nM.
In the case of `COC(C)(C)CNc1ccc(C2=NNC(=O)OC2)cc1C(F)(F)F` [Example 258, 5-{4-[(2-Methoxy-2-methylpropyl)amino]-3-(trifluoromethyl)phenyl}-3,6-dihydro-2H-1,3,4-oxadiazin-2-one], the IC50 was found to be 3 nM with HeLa cells (Homo sapiens, HeLa); 130 nM against human full length PDE3B; 6 nM in the test on SK-MEL-3 cells (Homo sapiens, SK-MEL3); 41 nM on human full length PDE3A.
For `Nc1cccc(-c2ccc(C3=NNC(=O)OC3)cc2C(F)(F)F)c1F` [Example 43, 5-[3′-Amino-2′-fluoro-2-(trifluoromethyl)biphenyl-4-yl]-3,6-dihydro-2H-1,3,4-oxadiazin-2-one], in that order: 34 nM, 85 nM, 48 nM and 96 nM.
As for `O=C1NN=C(c2ccc(-c3ccc(F)c(O)c3)c(C(F)(F)F)c2)CO1` [Example 37, 5-[4′-Fluoro-3′-hydroxy-2-(trifluoromethyl)biphenyl-4-yl]-3,6-dihydro-2H-1,3,4-oxadiazin-2-one], the IC50 in the test on HeLa cells (Homo sapiens, HeLa) worked out at 37 nM; on human full length PDE3B, 130 nM; in the test on SK-MEL-3 cells (Homo sapiens, SK-MEL3), 12 nM; against human full length PDE3A, 150 nM.
Consider `O=C1NN=C(c2ccc(-c3cc(F)c(F)cc3F)c(F)c2)CO1` [Example 98, 5-(2,2′,4′,5′-Tetrafluoro[1,1′-biphenyl]-4-yl)-3,6-dihydro-2H-1,3,4-oxadiazin-2-one], for which the IC50 in the test on HeLa cells (Homo sapiens, HeLa) is 5 nM; at human full length PDE3B, 120 nM; in the test with SK-MEL-3 cells (Homo sapiens, SK-MEL3), 8 nM; at human full length PDE3A, 100 nM.
For `CCCCNc1ccc(C2=NNC(=O)OC2)cc1C(F)(F)F` [Example 66, 5-[4-(Butylamino)-3-(trifluoromethyl)phenyl]-3,6-dihydro-2H-1,3,4-oxadiazin-2-one] the same measures were 2 nM, 95 nM, 3 nM and 65 nM.
For `O=C1NN=C(c2ccc(N[C@H]3CCC[C@H]3O)c(C(F)(F)F)c2)CO1` [Example 261, 5-[4-{[(1S,2R)-2-Hydroxycyclopentyl]amino}-3-(trifluoromethyl)phenyl]-3,6-dihydro-2H-1,3,4-oxadiazin-2-one], the IC50 in the test on HeLa cells (Homo sapiens, HeLa) was 38 nM; on human full length PDE3B it was 600 nM; in the test on SK-MEL-3 cells (Homo sapiens, SK-MEL3), more than 100 nM; against human full length PDE3A, 550 nM.
Consider `Cc1ccc(-c2ccc(C3=NNC(=O)OC3)cc2F)cn1` [Example 97, 5-[3-Fluoro-4-(6-methylpyridin-3-yl)phenyl]-3,6-dihydro-2H-1,3,4-oxadiazin-2-one], for which the IC50 with HeLa cells (Homo sapiens, HeLa) was 5 nM; against human full length PDE3B, 130 nM; with SK-MEL-3 cells (Homo sapiens, SK-MEL3) it was 8 nM; on human full length PDE3A, 65 nM.
For `O=C1NN=C(c2ccc(-c3cc(F)c(F)c(F)c3)c(C(F)(F)F)c2)CO1` [Example 58, 5-[3′,4′,5′-Trifluoro-2-(trifluoromethyl)biphenyl-4-yl]-3,6-dihydro-2H-1,3,4-oxadiazin-2-one] the same measures were 40 nM, 570 nM, 64 nM and 310 nM.
Take `Cc1ncc(-c2ccc(C3=NNC(=O)OC3)cc2C(F)(F)F)cc1F` [Example 48, 5-[4-(5-Fluoro-6-methylpyridin-3-yl)-3-(trifluoromethyl)phenyl]-3,6-dihydro-2H-1,3,4-oxadiazin-2-one]: the IC50 worked out at 8 nM with HeLa cells (Homo sapiens, HeLa); 240 nM against human full length PDE3B; 16 nM in the test with SK-MEL-3 cells (Homo sapiens, SK-MEL3); 240 nM at human full length PDE3A.
Take `O=C1NN=C(c2ccc(CN3CCOCC3)c(C(F)(F)F)c2)CO1` [Example 197, 5-{4-[(Morpholin-4-yl)methyl]-3-(trifluoromethyl)phenyl}-3,6-dihydro-2H-1,3,4-oxadiazin-2-one]: the half-inhibitory concentration (IC50) in the test on HeLa cells (Homo sapiens, HeLa) was determined as 5 nM; at human full length PDE3B, 803 nM; in the test with SK-MEL-3 cells (Homo sapiens, SK-MEL3), 10 nM; against human full length PDE3A, 650 nM.
`O=C1NN=C(c2ccc(NCC3CCCO3)c(C(F)(F)F)c2)CO1` (racemic) [Example 215, (rac)-5-[4-({[Oxolan-2-yl]methyl}amino)-3-(trifluoromethyl)phenyl]-3,6-dihydro-2H-1,3,4-oxadiazin-2-one]: the IC50 stood at 2 nM in the test on HeLa cells (Homo sapiens, HeLa); 100 nM against human full length PDE3B; 3 nM in the test on SK-MEL-3 cells (Homo sapiens, SK-MEL3); 66 nM at human full length PDE3A.
For `O=C1NN=C(c2ccc(NCC3(O)CCC3)c(C(F)(F)F)c2)CO1` [Example 219, 5-[4-{[(1-Hydroxycyclobutyl)methyl]amino}-3-(trifluoromethyl)phenyl]-3,6-dihydro-2H-1,3,4-oxadiazin-2-one], in that order: 8 nM, 97 nM, 13 nM and 58 nM.
For `CC(C)=Cc1ccc(C2=NNC(=O)OC2)cc1OC(F)(F)F` [Example 164, 5-[4-(2-Methylprop-1-en-1-yl)-3-(trifluoromethoxy)phenyl]-3,6-dihydro-2H-1,3,4-oxadiazin-2-one], in that order: 6 nM, 200 nM, 8 nM and 300 nM.
For `Cc1cc(C2=NNC(=O)OC2)ccc1-c1cncnc1` [Example 14, 5-[3-Methyl-4-(pyrimidin-5-yl)phenyl]-3,6-dihydro-2H-1,3,4-oxadiazin-2-one] the same measures were 49 nM, 71 nM, 64 nM and 63 nM.
`Cc1ccc(-c2ccc(C3=NNC(=O)O[C@H]3C)cc2C(F)(F)F)cc1` [Example 189, (6S)-6-Methyl-5-[4′-methyl-2-(trifluoromethyl)[1,1′-biphenyl]-4-yl]-3,6-dihydro-2H-1,3,4-oxadiazin-2-one]: the IC50 in the test on HeLa cells (Homo sapiens, HeLa) came out at 6 nM; against human full length PDE3B, 200 nM; with SK-MEL-3 cells (Homo sapiens, SK-MEL3) it was 12 nM; against human full length PDE3A it was 190 nM.
